Results reported in patent publication US11578084B2, “Condensed ring compounds having dopamine D3 receptor antagonistic effect” (Shionogi & Co., Ltd., priority 2018, dated 2023).
Like-named read-outs stand apart in the source and are kept apart here.

What was measured:
[1] = target: human recombinant dopamine D2 receptor (Homo sapiens (Human), UniProt P14416); assay: Test of binding inhibition for dopamine D2 receptor ([3H]-Methylspiperone SPA); details: Jump-In HEK cell membranes, read-out: hD2_Ki
Experimental: (§1) (Experimental Conditions)
Cell membranes: Jump-In HEK cell membranes expressing human recombinant dopamine D2 receptor (2 μg/well)
(§2) Non-specific ligand: (final concentration) 10 μM Butaclamol [(+)-Butaclamol Hydrochloride, D033, Sigma]
(§3) SPA beads solution: SPA beads [WGA PVT SPA Scintillation Beads, RPNQ0001 (500 mg), RPNQ0060 (2 g), PerkinElmer] (0.2 mg/well)
(§4) Incubation time and temperature: 120 min at 25° C.
(§5) Butaclamol or the compounds of the present invention were weighed and DMSO was added to make a 10 mM solution. This solution was diluted to each concentration.
(§6) SPA beads were weighed and stirred in water to make a 50 mg/mL solution. Using this solution, a mixture with the cell membranes was prepared.
Jump-In HEK Cell membranes (final reaction amount: 2 μg protein/well), the SPA beads solution (final reaction amount: 0.2 mg/well) and the buffer solution were mixed, and the mixed solution was left still for 1 hour or more at 4° C. Then, 50 μL of the mixture was added to each well of the plate. […] Non-specific binding was calculated based on the radioactivity of [^3H]-Methylspiperone in the presence of 10 μM non-labeled Butaclamol. The total binding was calculated using the radioactivity of [^3H]-Methylspiperone in the absence of the compounds of the present invention (Vehicle). The Ki values were calculated from dose-response curves.
(§7) Binding activities of the compounds of the present invention were calculated from the following Binding Inhibition Rate (%): Inhibition Rate (%)=[1−(c−a)/(b−a)]×100 • a: Average cpm of non-specific binding • b: Average cpm of total binding • c: Cpm in the presence of each test compound

hERG channel (IKr) = hERG channel (IKr) (Homo sapiens (Human), UniProt Q12809); assay: hERG test (whole cell patch clamp, IKr); assay type: cell-based; details: human, CHO cells expressing hERG channel, pH 7.4, 3 μM, tail peak current
Excerpt: Test Example 10: hERG Test
For the purpose of assessing risk of an electrocardiogram QT interval prolongation of the compound of the present invention, effects of the compound of the present invention on delayed rectifier K+ current (IKr), which plays an important role in the ventricular repolarization process, was studied using CHO cells expressing human ether-a-go-go related gene (hERG) channel.
After a cell was retained at a membrane potential of −80 mV by whole cell patch clamp method using an automated patch clamp system (QPatch; Sophion Bioscience A/S) and gave a leak potential of −50 mV, IKr induced by depolarization pulse stimulation at +20 mV for 2 seconds and, further, repolarization pulse stimulation at −50 mV for 2 seconds, was recorded. After the generated current was stabilized, extracellular solution (NaCl: 145 mmol/L, KCl: 4 mmol/L, CaCl2): 2 mmol/L, MgCl2: 1 mmol/L, glucose: 10 mmol/L, HEPES (4-(2-hydroxyethyl)-1-piperazineethanesulfonic acid): 10 mmol/L, pH=7.4), in which the compound of the present invention had been dissolved at an objective concentration in the extracellular solution, was applied to the cell at room temperature for 7 minutes or more. From the recording IKr, an absolute value of the tail peak current was measured based on the current value at the resting membrane potential using analysis software (QPatch Assay software; Sophion Bioscience A/S). Further, the % inhibition of tail peak current for the compound of the present invention relative to the tail peak current after application of the solution (0.1% dimethyl sulfoxide solution) was calculated to assess influence of the compound of the present invention on IKr.

[2] = target: human recombinant dopamine D3 receptor (Homo sapiens (Human), UniProt P35462); assay: Test of binding inhibition for dopamine D3 receptor ([3H]-Methylspiperone SPA); details: Jump-In HEK cell membranes, 2 nM [3H]-Methylspiperone, 120 min at 25° C.; read-out: hD3_Ki
Experimental: as §1
Cell membranes: Jump-In HEK cell membranes expressing human recombinant dopamine D3 receptor (4 μg/well)
as §2, §3, §4, §5
[^3H]-Methylspiperone was weighed and the buffer solution was added to make a 6 nM solution.
as §6
Jump-In HEK Cell membranes (final reaction amount: 4 μg protein/well), the SPA beads solution (final reaction amount: 0.2 mg/well) and the buffer solution were mixed and the mixed solution was left still for 1 hour or more at 4° C. Then, 50 μL of the mixture was added to each well of the plate. In addition, 25 μL of 6 nM [^3H]-Methylspiperone (final concentration: 2 nM) was added to each well. […] Non-specific binding was calculated based on the radioactivity of [^3H]-Methylspiperone in the presence of 10 μM non-labeled Butaclamol. The total binding was calculated using the radioactivity of [H]-Methylspiperone in the absence of the compounds of the present invention (vehicle). The Ki values were calculated from dose-response curves.
as §7

[3] = 1.2 nM [3H]-Methylspiperone, 120 min at 25° C.

human recombinant dopamine D2 receptor, sequence (P14416 whole entry): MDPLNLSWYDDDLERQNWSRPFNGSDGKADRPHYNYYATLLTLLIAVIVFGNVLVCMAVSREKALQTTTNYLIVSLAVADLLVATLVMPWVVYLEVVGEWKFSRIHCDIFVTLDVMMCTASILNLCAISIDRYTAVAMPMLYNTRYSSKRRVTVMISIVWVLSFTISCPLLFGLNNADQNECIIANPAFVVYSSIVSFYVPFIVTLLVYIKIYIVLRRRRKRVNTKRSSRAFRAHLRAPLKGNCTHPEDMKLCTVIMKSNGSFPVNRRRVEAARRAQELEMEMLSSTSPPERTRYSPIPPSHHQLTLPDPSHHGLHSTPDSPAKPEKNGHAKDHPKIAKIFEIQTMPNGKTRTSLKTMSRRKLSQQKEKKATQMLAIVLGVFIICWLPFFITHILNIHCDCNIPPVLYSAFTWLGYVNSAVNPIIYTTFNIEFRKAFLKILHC
hERG channel (IKr), sequence (Q12809 whole entry): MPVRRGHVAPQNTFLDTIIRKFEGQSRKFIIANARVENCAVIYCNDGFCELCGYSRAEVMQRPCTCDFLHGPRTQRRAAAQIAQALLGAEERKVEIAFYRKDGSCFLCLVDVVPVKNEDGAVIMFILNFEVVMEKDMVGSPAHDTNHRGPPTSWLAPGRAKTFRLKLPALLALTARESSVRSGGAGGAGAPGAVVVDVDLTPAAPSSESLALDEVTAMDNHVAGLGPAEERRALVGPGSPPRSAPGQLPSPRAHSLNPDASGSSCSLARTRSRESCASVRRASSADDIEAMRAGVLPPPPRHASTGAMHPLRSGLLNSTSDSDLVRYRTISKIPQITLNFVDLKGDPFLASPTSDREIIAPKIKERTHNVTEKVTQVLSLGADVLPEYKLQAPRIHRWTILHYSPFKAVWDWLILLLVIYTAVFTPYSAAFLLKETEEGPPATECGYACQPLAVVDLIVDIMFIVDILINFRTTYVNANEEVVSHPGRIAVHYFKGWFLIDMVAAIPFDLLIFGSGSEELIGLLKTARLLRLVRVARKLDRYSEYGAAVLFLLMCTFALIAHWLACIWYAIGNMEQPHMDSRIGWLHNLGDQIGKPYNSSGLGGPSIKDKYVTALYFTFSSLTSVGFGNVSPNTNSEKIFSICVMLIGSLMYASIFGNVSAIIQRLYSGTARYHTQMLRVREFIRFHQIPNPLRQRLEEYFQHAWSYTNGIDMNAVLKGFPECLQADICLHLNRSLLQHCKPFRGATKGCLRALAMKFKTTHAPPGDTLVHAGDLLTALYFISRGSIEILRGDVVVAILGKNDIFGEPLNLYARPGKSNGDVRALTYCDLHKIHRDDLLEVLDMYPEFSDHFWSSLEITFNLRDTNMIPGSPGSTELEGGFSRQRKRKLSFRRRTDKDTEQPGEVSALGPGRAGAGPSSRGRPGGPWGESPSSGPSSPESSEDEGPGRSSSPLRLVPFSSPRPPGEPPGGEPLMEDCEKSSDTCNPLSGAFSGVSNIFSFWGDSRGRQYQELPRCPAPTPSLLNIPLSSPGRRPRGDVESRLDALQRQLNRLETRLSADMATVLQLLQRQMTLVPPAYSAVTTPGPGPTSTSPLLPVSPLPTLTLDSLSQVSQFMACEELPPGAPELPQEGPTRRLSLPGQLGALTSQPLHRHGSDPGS
human recombinant dopamine D3 receptor, sequence (P35462 whole entry): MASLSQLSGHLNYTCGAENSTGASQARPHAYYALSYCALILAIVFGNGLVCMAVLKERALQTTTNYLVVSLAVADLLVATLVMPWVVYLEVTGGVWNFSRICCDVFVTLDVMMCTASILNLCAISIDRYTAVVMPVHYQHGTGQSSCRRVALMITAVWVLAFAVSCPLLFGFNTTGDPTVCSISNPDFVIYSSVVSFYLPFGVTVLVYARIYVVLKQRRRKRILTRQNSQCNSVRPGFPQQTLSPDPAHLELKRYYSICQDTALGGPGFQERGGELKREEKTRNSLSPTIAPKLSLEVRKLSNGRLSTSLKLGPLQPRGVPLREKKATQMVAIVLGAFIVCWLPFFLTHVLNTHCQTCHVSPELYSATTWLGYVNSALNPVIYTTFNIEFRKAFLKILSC

SMILES | Ki [1, 3] [nM] | inhibition at 3 µM (hERG channel (IKr)) [%] | Ki [2] [nM] | Ki ([1]; [3H]-Methylspiperone 1.2 nM) [nM]
COC(CN1CCc2ccc(OCC(F)(F)F)nc2CC1)[C@H]1CC[C@H](NC(=O)Cc2cnc(C)o2)CC1 (single isomer, unassigned) [Example I-045] | 1700 | 18.3 | 0.81 | 
COC(CN1CCc2sc(OCC(C)(F)F)nc2C1)C1CC2(CC(NC(=O)c3cccc4nn(C)cc34)C2)C1 (single isomer, unassigned) [Example I-047] | 110 | 13.6 | 0.058 | 
Cn1cc2c(C(=O)N[C@H]3CC4(C3)C[C@](F)(CCN3CCc5nc(OCC(F)(F)F)sc5CC3)C4)cccc2n1 (single isomer, unassigned) [Example I-049] | 310 | 36.8 | 0.33 | 
CC(Oc1nc2c(s1)CCN(CC[C@H]1CC[C@H](NC(=O)c3cccc4nn(C)cc34)CC1)CC2)C(F)F (single isomer, unassigned) [Example I-112] | > 2200 | 23.5 | 0.12 | 
Cc1ncc(CC(=O)N[C@H]2CC[C@H](CCN3CCc4sc(OC5CC(F)(F)C5)nc4C3)CC2)o1 [Example I-002] |  | 30.3 | 0.47 | 
Cc1ncc(CC(=O)N[C@H]2CC[C@H](CCN3CCc4ccc(CCC(F)(F)F)nc4CC3)CC2)cn1 [I′-16] |  |  | 0.36 | 1800
Cc1cc(CC(=O)N[C@H]2CC[C@H](CCN3CCc4ccc(CCC(F)(F)F)nc4CC3)CC2)on1 [I′-17] |  |  | 0.15 | > 2300
Cn1cc(CC(=O)N[C@H]2CC[C@H](CCN3CCc4ccc(CCC(F)(F)F)nc4CC3)CC2)c(F)n1 [I′-18] |  |  | 0.38 | 1000
Cn1ncc(CC(=O)N[C@H]2CC[C@H](CCN3CCc4ccc(CCC(F)(F)F)nc4CC3)CC2)c1F [I′-19] |  |  | 0.36 | 1100
Cc1ncc(/C=C/C(=O)N[C@H]2CC[C@H](CCN3CCc4ccc(CCC(F)(F)F)nc4CC3)CC2)cn1 [I′-20] |  |  | 0.38 | 260
Cc1cc(CC(=O)N[C@H]2CC[C@H](CCN3CCc4ccc(CCC(F)(F)F)nc4CC3)CC2)no1 [I′-21] |  |  | 1 | > 2300
Cn1ncc(CC(=O)N[C@H]2CC[C@H](CCN3CCc4nc(OCC(F)(F)F)sc4CC3)CC2)c1F [I′-22] |  |  | 0.1 | 2000
Cn1ncc(CC(=O)N[C@H]2CC[C@](F)(CCN3CCc4nc(OCC(F)(F)F)sc4CC3)CC2)c1F [I′-23] |  |  | 0.28 | > 2200
Cn1cc(CC(=O)N[C@H]2CC[C@H](CCN3CCc4nc(OCC(F)(F)F)sc4CC3)CC2)c(F)n1 [I′-24] |  |  | 0.17 | 630
Cn1cc(CC(=O)N[C@H]2CC[C@](F)(CCN3CCc4nc(OCC(F)(F)F)sc4CC3)CC2)c(F)n1 [I′-25] |  |  | 0.29 | 730
Cn1ncc(CC(=O)N[C@H]2CC[C@H](CCN3CCc4nc(OCC(C)(F)F)sc4CC3)CC2)c1F [I′-26] |  |  | 0.17 | 870
Cn1cc(CC(=O)N[C@H]2CC[C@H](CCN3CCc4nc(OCC(C)(F)F)sc4CC3)CC2)c(F)n1 [I′-27] |  |  | 0.09 | > 2200
Cn1ncc(CC(=O)N[C@H]2CC[C@H](CCN3CCc4nc(OCC(F)F)sc4CC3)CC2)c1F [I′-28] |  |  | 0.21 | 1500
Cn1ncc(CC(=O)N[C@H]2CC[C@](F)(CCN3CCc4nc(OCC(F)F)sc4CC3)CC2)c1F [I′-29] |  |  | 3.1 | > 2200
Cn1cc(CC(=O)N[C@H]2CC[C@H](CCN3CCc4nc(OCC(F)F)sc4CC3)CC2)c(F)n1 [I′-30] |  |  | 0.19 | 1600
Cn1cc(CC(=O)N[C@H]2CC[C@](F)(CCN3CCc4nc(OCC(F)F)sc4CC3)CC2)c(F)n1 [I′-31] |  |  | 0.57 | 1300

SMILES | Ki [1, 3] [nM] | inhibition at 3 µM (hERG channel (IKr)) [%] | Ki [2] [nM] | Ki ([1]; [3H]-Methylspiperone 1.2 nM) [nM]
Cn1cc(CC(=O)N[C@H]2CC[C@H](CCN3CCc4ccc(OCC(F)F)nc4CC3)CC2)c(F)n1 [I′-32] |  |  | 0.16 | 1200
Cn1ncc(CC(=O)N[C@H]2CC[C@H](CCN3CCc4ccc(OCC(F)F)nc4CC3)CC2)c1F [I′-33] |  |  | 0.85 | 1600
Cn1ncc(CC(=O)N[C@H]2CC[C@](F)(CCN3CCc4ccc(OCC(F)F)nc4CC3)CC2)c1F [I′-35] |  |  | 0.41 | 1800
Cn1ncc(CC(=O)N[C@H]2CC[C@H](CCN3CCc4nc(OCC(F)(F)F)sc4CC3)CC2)n1 [I′-36] |  |  | 0.071 | 740
Cn1ncc(CC(=O)N[C@H]2CC[C@H](CCN3CCc4nc(OCC(F)F)sc4CC3)CC2)n1 [I′-40] |  |  | 0.19 | 1900
Cn1ncc(CC(=O)N[C@H]2CC[C@H](CCN3CCc4ccc(OCC(C)(F)F)nc4CC3)CC2)n1 [I′-42] |  |  | 0.016 | 500
Cn1ncc(CC(=O)N[C@H]2CC[C@](F)(CCN3CCc4ccc(OCC(F)(F)F)nc4CC3)CC2)n1 [I′-43] |  |  | 0.078 | 350
Cn1ncc(CC(=O)N[C@H]2CC[C@H](CCN3CCc4ccc(OCC(F)F)nc4CC3)CC2)n1 [I′-44] |  |  | 0.11 | 2000
Cc1ncc(/C=C/C(=O)N[C@H]2CC[C@H](CCN3CCc4sc(C5CC(F)(F)C5)nc4C3)CC2)cn1 [I′-45] |  |  | 0.11 | 210
Cc1ncc(OCC(=O)N[C@H]2CC[C@](F)(CCN3CCc4ccc(OCC(C)(F)F)nc4CC3)CC2)cn1 [I′-46] |  |  | 0.33 | 260
Cc1ncc(/C=C/C(=O)N[C@H]2CC[C@](F)(CCN3CCc4ccc(OCC(C)(F)F)nc4CC3)CC2)cn1 [I′-47] |  |  | 0.081 | 41
Cc1ncc(/C=C/C(=O)N[C@H]2CC[C@](F)(CCN3CCc4nc(OCC(F)(F)F)sc4CC3)CC2)cn1 [I′-48] |  |  | 0.27 | > 2200
Cn1c(C(=O)N[C@H]2CC[C@](F)(CCN3CCc4nc(OCC(F)(F)F)sc4CC3)CC2)cccc1=O [I′-49] |  |  | 0.59 | 290
Cc1nc(CC(=O)N[C@H]2CC[C@](F)(CCN3CCc4nc(OCC(F)(F)F)sc4CC3)CC2)nn1C [I′-50] |  |  | 0.23 | 1600
Cc1ncc(CC(=O)N[C@H]2CC[C@](F)(CCN3CCc4nc(OCC(F)(F)F)sc4CC3)CC2)cn1 [I′-51] |  |  | 0.48 | 890
Cc1cnc(OCC(=O)N[C@H]2CC[C@](F)(CCN3CCc4nc(OCC(F)(F)F)sc4CC3)CC2)cn1 [I′-52] |  |  | 0.17 | > 2200
Cc1cnc(OCC(=O)N[C@H]2CC[C@](F)(CCN3CCc4ccc(OCC(F)F)nc4CC3)CC2)cn1 [I′-53] |  |  | 0.32 | > 2200
Cc1ncc(OCC(=O)N[C@H]2CC[C@H](CCN3CCc4nc(OCC(F)F)sc4CC3)CC2)cn1 [I′-54] |  |  | 0.32 | 1600
Cc1ncc(CC(=O)N[C@H]2CC[C@H](CCN3CCc4nc(OCC(C)(F)F)sc4CC3)CC2)cn1 [I′-55] |  |  | 0.16 | 950
Cc1ncc(CC(=O)N[C@H]2CC[C@H](CCN3CCc4nc(OCC(F)F)sc4CC3)CC2)cn1 [I′-56] |  |  | 0.3 | 1400
Cc1ncc(CC(=O)N[C@H]2CC[C@H](CCN3CCc4cc(F)c(OCC(F)F)nc4CC3)CC2)o1 [I′-57] |  |  | 0.52 | > 2200
